Publication PMC6010085, “Inhibition of protein tyrosine phosphatase (PTP1B) and α-glucosidase by geranylated flavonoids from Paulownia tomentosa” (Journal of Enzyme Inhibition and Medicinal Chemistry, 2017)
Entries after “also recorded” stand apart in the source; their conditions may differ. Read-outs that look alike come from different tables or passages of the source.

Columns and labels:
[1] = target: T1, recombinant human protein tyrosine phosphate 1B (PTP1B, EC 3. 1. 3. 48) (Homo sapiens, UniProt P18031); assay: biochemical; type: biochemical; design: Vmax: unit not given here; settings: for PTP1B type of inhibition: Lineweaver–Burk / secondary plots; for Vmax / Kik/Kiv: pNPP; for Kik/Kiv: Yang's method
T1 sequence (P18031 1-435): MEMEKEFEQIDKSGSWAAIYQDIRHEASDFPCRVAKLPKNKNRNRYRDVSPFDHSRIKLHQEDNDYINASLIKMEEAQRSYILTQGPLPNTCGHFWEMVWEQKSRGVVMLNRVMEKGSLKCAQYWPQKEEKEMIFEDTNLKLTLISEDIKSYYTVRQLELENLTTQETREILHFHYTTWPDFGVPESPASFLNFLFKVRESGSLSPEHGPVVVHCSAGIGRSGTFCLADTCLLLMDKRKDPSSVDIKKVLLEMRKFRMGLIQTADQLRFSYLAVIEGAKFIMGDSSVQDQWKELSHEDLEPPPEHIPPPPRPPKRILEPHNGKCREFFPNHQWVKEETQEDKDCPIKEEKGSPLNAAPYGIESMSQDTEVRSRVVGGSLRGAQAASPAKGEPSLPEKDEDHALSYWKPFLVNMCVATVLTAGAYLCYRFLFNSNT
Protocol: The PTP1B inhibitory assay was carried out using a slight modification to literature reported method. p-nitrophenyl phosphate (pNPP) was used as a substrate for the measurement of enzyme activity. Buffer solution consisted of 25 mM Tris–HCl (pH 7.5), 2 mM β-mercaptoethanol, 1 mM (ethylenediaminetetraacetic acid) EDTA, and 1 mM dithiothreitol (DTT). The assay was performed by adding 10 μL test compound solution to 20 μL of enzyme (1 μg/ml), and then mixing with 40 μL of 4 mM pNPP in 130 μL of the given buffer using 96 well plate at 37 °C for 10 min. […] Lineweaver–Burk and Dixon plots methods were used to determine kinetic parameters. Sigma Plot (SPCC Inc., Chicago, IL) was used to calculate these parameters.
(§1) Lineweaver–Burk plots were used for the analysis of enzyme’s inhibitory kinetics, caused by the tested bioactive compounds, and its comparison was performed with the data collected in the absence of inhibitors. Steady-state rates were determined at different inhibitor concentrations and at changing concentrations of substrate, then enzyme inhibition mechanism and related kinetic parameters were determined. Where applicable, KI and KIS, the two inhibition constants, when inhibitor binds with either free enzyme or the complex of enzyme–substrate, were derived from secondary plots of the slopes of the straight lines and vertical intercept (1/V^appmax), versus inhibitors concentrations. Equations (1)–(3) are the representatives equations for derivation of KI and KIS, respectively.
(§2) To determine enzyme inhibition parameters, an experiment was performed having substrate concentrations range (pNPP; 0.4–1.6 mM, pNPG; 0.075–0.3 mM), and different concentrations of tested compound, as indicated. To find out each curve parameter, a nonlinear regression program was used for data analysis using sigma Plot. Similarly Km and Vmax were derived from Lineweaver–Burk plots. Kik and Kiv rate constants were calculated according to Equations (4) and (5) proposed by Yang’s method. While Excel was used for linear regression analysis. (4) Km=Km,0×(1+[I]/Kik) (5) Vm=[…]
First of all, the individual isolated constituents (1–8) from P. tomentosa fruits were tested in an in vitro PTP1B inhibition assay, using recombinant human protein tyrosine […] 1B (EC 3. 1. 3. 48)^1.

[2] = target: α-glucosidase (EC 3.2.1.20. from Baker's Yeast) (Saccharomyces cerevisiae, UniProt P53341); assay: α-Glucosidase enzymatic assay (pNPG hydrolysis) and kinetic analysis; type: biochemical; settings: for α-Glucosidase type of inhibition: Lineweaver–Burk and Dixon plots; for Vmax / Kik/Kiv: α-glucosidase, pNPG; for Kik/Kiv: Yang's method
Chain of α-glucosidase (EC 3.2.1.20. from Baker's Yeast) (P53341 whole entry): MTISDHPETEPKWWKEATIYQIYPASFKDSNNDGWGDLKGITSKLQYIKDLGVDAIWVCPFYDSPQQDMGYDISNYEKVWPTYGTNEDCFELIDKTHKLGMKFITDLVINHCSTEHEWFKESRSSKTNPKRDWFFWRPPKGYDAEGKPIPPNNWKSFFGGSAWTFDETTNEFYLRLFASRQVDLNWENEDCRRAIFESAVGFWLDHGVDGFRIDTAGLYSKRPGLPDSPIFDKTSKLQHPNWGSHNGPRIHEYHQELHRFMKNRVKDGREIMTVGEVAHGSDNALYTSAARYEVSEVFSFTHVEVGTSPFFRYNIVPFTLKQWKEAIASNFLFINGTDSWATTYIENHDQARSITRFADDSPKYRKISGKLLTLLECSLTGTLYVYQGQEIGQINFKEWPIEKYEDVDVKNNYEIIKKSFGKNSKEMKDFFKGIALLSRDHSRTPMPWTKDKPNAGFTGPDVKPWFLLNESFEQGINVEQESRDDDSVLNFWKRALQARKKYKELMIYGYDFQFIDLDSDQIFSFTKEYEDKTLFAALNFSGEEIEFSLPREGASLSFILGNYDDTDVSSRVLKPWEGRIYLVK
Protocol: The α-glucosidase inhibitory activity was measured using reported experimental method with slight modifications. Phosphate buffer [50 mM potassium phosphate (pH 6.8)] was used for the whole assay. p-nitrophenyl-α-D-glucopyranoside (pNPG) was used as substrate, whose concentration 1.2 mM was prepared in phosphate buffer. Stock solution of α-glucosidase (EC 3.2.1.20. from Baker’s Yeast) containing 0.45 units of enzyme was also prepared in phosphate buffer. DMSO was used as a solvent for dissolving the test compounds, which were then diluted to their respective concentrations. Enzymatic assay was performed by mixing 40 μl of substrate (final concentration 0.15 mM) with 10 μl of inhibitors/vehicle, 130 μl phosphate buffer and 20 μl of enzyme in 96 well plate. As a result of the catalytic reaction, p-nitrophenol was produced as a reaction product which was subsequently measured using spectra max M3 multi-mode microplate reader (Molecular Devices) at 37 °C, at 405 nm for 15 min. […] The experiments were performed in triplicate.
as §1, §2

[3] = PTP1B, secondary plots, read-out: KI (inhibitor binds with free enzyme)
[4] = from Dixon plots, read-out: PTP1B Ki (inhibition constant)
[5] = pNPP substrate, triplicate, read-out: PTP1B IC50

| Structure (SMILES) | PTP1B type of inhibition [1] | KIS (inhibitor binds with enzyme-substrate complex) ([1]; PTP1B, secondary plots) | α-Glucosidase type of inhibition [2] | Ki [1, 3] | Ki [1, 4] | IC50 [1, 5] | other results |
| --- | --- | --- | --- | --- | --- | --- | --- |
| CC(C)=CCC/C(C)=C/Cc1c(O)cc2c(c1O)C(=O)C[C@@H](c1ccc(O)cc1)O2 [Compound 1, mimulone] | Mixed TypeⅠ; also recorded: mixed type Ι; also recorded: Mixed Type I | 2.2 ± 0.1 µM | Noncompetitive | – | – | – | IC50 [1]: 1.9 ± 0.1 µM; Ki ([1]; KI (inhibitor binds with free enzyme), PTP1B, secondary plots, text without unit): 0.4 µM; Ki ([1]; PTP1B Ki (inhibition constant), from Dixon plots): 0.8 ± 0.1 µM; Vmax ([1]; PTP1B, [I] 0.78 µM): 0.012; Kik/Kiv ([1]; PTP1B, [I] 0.78 µM): 2.660; Vmax ([1]; PTP1B, [I] 1.56 µM): 0.009; Kik/Kiv ([1]; PTP1B, [I] 1.56 µM): 3.335; Vmax ([1]; PTP1B, [I] 3.13 µM): 0.007; Kik/Kiv ([1]; PTP1B, [I] 3.13 µM): 3.694; KIS (inhibitor binds with enzyme-substrate complex) ([1]; PTP1B, secondary plots, text without unit): 2.2; reversibility of PTP1B inhibition ([1]; initial velocity versus enzyme concentration at different inhibitor concentrations): reversible inhibitor; Vmax ([2]; [I] 12.5 µM): 0.117; Kik/Kiv ([2]; [I] 12.5 µM): 12.42; Vmax ([2]; [I] 25 µM): 0.082; Kik/Kiv ([2]; [I] 25 µM): 19.34; Vmax ([2]; [I] 50 µM): 0.054; Kik/Kiv ([2]; [I] 50 µM): 27.48 |
| COc1cc([C@@H]2CC(=O)c3c(cc(O)c(C/C=C(\C)CCC=C(C)C)c3O)O2)ccc1O [Compound 2, 3′-O-methyldiplacone] | Mixed TypeⅠ; also recorded: Mixed Type I | 3.7 ± 0.2 µM | Noncompetitive | 2.6 ± 0.1 µM | 3.2 ± 0.2 µM | 3.9 ± 0.3 µM | – |
| COc1ccc([C@@H]2CC(=O)c3c(cc(O)c(C/C=C(\C)CCC=C(C)C)c3O)O2)cc1O [Compound 3, 4′-O-methyldiplacone] | Mixed TypeⅠ; also recorded: Mixed Type I | 10.1 ± 0.4 µM | Noncompetitive | 5.7 ± 0.3 µM | 8.1 ± 0.6 µM | 7.8 ± 0.6 µM | – |
| COc1c(O)cc(C2CC(=O)c3c(cc(O)c(C/C=C(\C)CCC=C(C)C)c3O)O2)cc1O (stereo not drawn) [Compound 4, 6-geranyl-3′,5,5′,7-tetrahydroxy-4′-methoxyflavanone] | Mixed TypeⅠ; also recorded: Mixed Type I | 11.2 ± 0.4 µM | Noncompetitive | 5.5 ± 0.3 µM | 6.1 ± 0.5 µM | 5.9 ± 0.4 µM | – |
| COc1cc([C@@H]2CC(=O)c3c(cc(O)c(C/C=C(\C)CCC=C(C)C)c3O)O2)cc(OC)c1O [Compound 5, 3′-O-Methyl-5′-O-methyldiplacone] | Mixed TypeⅠ; also recorded: Mixed Type I | 4.6 ± 0.2 µM | Noncompetitive | 2.8 ± 0.2 µM | 3.5 ± 0.3 µM | 3.8 ± 0.3 µM | – |
| COc1cc([C@H]2Oc3cc(O)c(C/C=C(\C)CCC=C(C)C)c(O)c3C(=O)[C@@H]2O)ccc1O [Compound 6, 3′-O-methyldiplacol] | Mixed TypeⅠ; also recorded: mixed type Ι; also recorded: Mixed Type I | 5.2 ± 0.2 µM | Noncompetitive | 3.5 ± 0.2 µM | 3.8 ± 0.3 µM | 4.9 ± 0.5 µM | – |
| COc1ccc([C@H]2Oc3cc(O)c(C/C=C(\C)CCC=C(C)C)c(O)c3C(=O)[C@@H]2O)cc1O [Compound 7, 4′-O-methyldiplacol] | Mixed TypeⅠ; also recorded: Mixed Type I | 13.7 ± 0.6 µM | Noncompetitive | 6.9 ± 0.4 µM | 7.9 ± 0.4 µM | 8.2 ± 0.6 µM | – |
| COc1c(O)cc([C@H]2Oc3cc(O)c(C/C=C(\C)CCC=C(C)C)c(O)c3C(=O)[C@@H]2O)cc1O [Compound 8] | Mixed TypeⅠ; also recorded: Mixed Type I | 10.3 ± 0.5 µM | Noncompetitive | 5.9 ± 0.3 µM | 6.2 ± 0.4 µM | 6.6 ± 0.5 µM | – |
| [Na+].[Na+].[Na+].[O]=[V]([O-])([O-])[O-] [NaVO4, reference compound] | – | – | – | – | – | – | IC50 ([2]; pNPG substrate, triplicate): > 200 µM |
